The text below walks through data of patent US20260109721A1, “IONIZABLE CATIONIC LIPIDS INCORPORATING SILICON: SYNTHESIS AND LNP FORMULATION” (priority 2023, published 2026).

For this data set, the system named is HepG2 cell line. The data set can be described thus: In vitro toxicity study on HepG2 cell line (resazurin, viability and IC50). The format is cell-based, human. To be noted: for Viability (%) at different lipid concentrations, mean: HepG2 cells, 48 h post-treatment, relative to ethanol vehicle controls; for IC50: Homo sapiens, read-out: IC50 value, μM (on HepG2 cell). The procedure, abridged: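 Resazurin read-out (ex 530/em 580 nm, 5 h at 37 °C) measured lipid toxicity 48 h after dosing HepG2 cells (1000/well) at 6.25–800 μM. Viability was normalised to ethanol vehicle, and IC50 was derived from concentration-response curves.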
(Resazurin is reduced to fluorescent resorufin, in cell work by metabolically active cells.)

Setting [1] is: lipid toxicity, HepG2, 48 h post-treatment, resazurin, 6.25-800 μM.

Where two headings read alike, the source gives them in different places. Some results are limits rather than exact numbers.

A word on the IC50: it is the concentration needed to halve the response being measured. As for `CCCCCCCC/C=C\CCCCCCCCOC(CCCCCCC/C=C\CCCCCCCC)O[Si](C)(C)OCCCCCCN(C)[C@H](CO)Cc1ccccc1` (stereo partly drawn) [Example 78, (2S,Z)-2-benzyl-13-((Z)-heptadec-8-en-1-yl)-3,11,11-trimethyl-10,12,14-trioxa-3-aza-11-siladotriacont-23-en-1-ol], the “Viability (%) at different lipid concentrations, mean” value (6.25 μM lipid, resazurin) was found to be 92.0%; the “Viability (%) at different lipid concentrations, mean” value (12.5 μM lipid, resazurin) turned out to be 101.6%; the “Viability (%) at different lipid concentrations, mean” value (25 μM lipid, resazurin) stood at 101.5%; the “Viability (%) at different lipid concentrations, mean” value (50 μM lipid, resazurin) is given as 102.9%; the “Viability (%) at different lipid concentrations, mean” value (100 μM lipid, resazurin) turned out to be 101.9%; the “Viability (%) at different lipid concentrations, mean” value (200 μM lipid, resazurin) came out at 100.8%. Moreover, the “Viability (%) at different lipid concentrations, mean” value (400 μM lipid, resazurin) stood at 56.4% and the “Viability (%) at different lipid concentrations, mean” value (800 μM lipid, resazurin) is 1.6%. In addition, the IC50 under setting [1] was determined as 414 µM.

For `CCCCC/C=C\C/C=C\CCCCCCCCOC(CCCCCCC/C=C\C/C=C\CCCCC)O[Si](C)(C)OCCCCCCN(C)C` (stereo not drawn) [Example 79, (20Z,23Z)-10-((8Z,11Z)-heptadeca-8,11-dien-1-yl)-N,N,8,8-tetramethyl-7,9,11-trioxa-8-silanonacosa-20,23-dien-1-amine], the “Viability (%) at different lipid concentrations, mean” value came out at 100.82% (6.25 μM lipid, resazurin); 98.88% (12.5 μM lipid, resazurin); 99.57% (25 μM lipid, resazurin); 101.89% (50 μM lipid, resazurin); 99.49% (100 μM lipid, resazurin); 76.57% (200 μM lipid, resazurin). The “Viability (%) at different lipid concentrations, mean” value is given as 52.32% (400 μM lipid, resazurin) and 34.54% (800 μM lipid, resazurin). Besides, the IC50 (HepG2, 48 h) was 473 µM.

In the case of `CCCCC/C=C\C/C=C\CCCCCCCCO[Si](C)(C)OC(CCCCCCC/C=C\C/C=C\CCCCC)OCCCN(C)C` (stereo not drawn) [Example 80, (17Z,20Z)-5-((8Z,11Z)-heptadeca-8,11-dien-1-yl)-N,N,7,7-tetramethyl-4,6,8-trioxa-7-silahexacosa-17,20-dien-1-amine], the “Viability (%) at different lipid concentrations, mean” value reads like this: (6.25 μM lipid, resazurin) 98.8%; (12.5 μM lipid, resazurin) 98.68%; (25 μM lipid, resazurin) 98.64%; (50 μM lipid, resazurin) 99.05%; (100 μM lipid, resazurin) 96.68%; (200 μM lipid, resazurin) 69.13%. Further, the “Viability (%) at different lipid concentrations, mean” value (400 μM lipid, resazurin) amounted to 0.79% and the “Viability (%) at different lipid concentrations, mean” value (800 μM lipid, resazurin) was 0.71%. Moreover, for the setting “HepG2, 48 h”, the IC50 was 223 µM.

`CCCCCCCC/C=C\CCCCCCCCOC(=O)C(C)(C)CC(OCCCCCCCC/C=C\CCCCCCCC)O[Si](C)(C)OCCCCCCN(CCO)CCO` (stereo not drawn) [Example 84, (Z)-octadec-9-en-1-yl 1-hydroxy-3-(2-hydroxyethyl)-11,11,15,15-tetramethyl-13-(((Z)-octadec-9-en-1-yl)oxy)-10,12-dioxa-3-aza-11-silahexadecan-16-oate]: the “Viability (%) at different lipid concentrations, mean” value (6.25 μM lipid, resazurin) is recorded as 87.8%; the “Viability (%) at different lipid concentrations, mean” value (12.5 μM lipid, resazurin) stood at 99.3%; the “Viability (%) at different lipid concentrations, mean” value (25 μM lipid, resazurin) is 101.8%; the “Viability (%) at different lipid concentrations, mean” value (50 μM lipid, resazurin) amounted to 104.5%; the “Viability (%) at different lipid concentrations, mean” value (100 μM lipid, resazurin) was found to be 103.5%; the “Viability (%) at different lipid concentrations, mean” value (200 μM lipid, resazurin) was found to be 90.4%. The “Viability (%) at different lipid concentrations, mean” value runs as follows: (400 μM lipid, resazurin) 82.2%; (800 μM lipid, resazurin) 88.5%. For the same compound, the IC50 under setting [1] was more than 800 µM.

With `CCCCCCCC/C=C\CCCCCCCCOC(=O)C(C)(C)CC(OCCCCCCCC/C=C\CCCCCCCC)O[Si](C)(C)OCCCCCCN1CCOCC1` (stereo not drawn) [Example 85, (Z)-octadec-9-en-1-yl 4-((dimethyl((6-morpholinohexyl)oxy)silyl)oxy)-2,2-dimethyl-4-(((Z)-octadec-9-en-1-yl)oxy)butanoate], the “Viability (%) at different lipid concentrations, mean” value reads like this: (6.25 μM lipid, resazurin) 97.0%; (12.5 μM lipid, resazurin) 101.0%; (25 μM lipid, resazurin) 101.4%; (50 μM lipid, resazurin) 102.1%; (100 μM lipid, resazurin) 101.5%; (200 μM lipid, resazurin) 101.9%. The “Viability (%) at different lipid concentrations, mean” value (400 μM lipid, resazurin) came out at 103.2% and the “Viability (%) at different lipid concentrations, mean” value (800 μM lipid, resazurin) is reported as 80.1%. The IC50 under setting [1] was more than 800 µM.

`CCCCCCCC/C=C\CCCCCCCCOC(=O)C(C)(C)CC(OCCCCCCCC/C=C\CCCCCCCC)O[Si](C)(C)OCCCCCCN(CCCCO)CCCCO` (stereo not drawn) [Example 86, (Z)-octadec-9-en-1-yl 18-hydroxy-14-(4-hydroxybutyl)-2,2,6,6-tetramethyl-4-(((Z)-octadec-9-en-1-yl)oxy)-5,7-dioxa-14-aza-6-silaoctadecanoate]: the “Viability (%) at different lipid concentrations, mean” value worked out at 95.4% (6.25 μM lipid, resazurin); 107.0% (12.5 μM lipid, resazurin); 108.7% (25 μM lipid, resazurin); 105.4% (50 μM lipid, resazurin); 95.4% (100 μM lipid, resazurin); 77.2% (200 μM lipid, resazurin). Also, the “Viability (%) at different lipid concentrations, mean” value is, setting by setting: (400 μM lipid, resazurin) 57.1%; (800 μM lipid, resazurin) 42.8%. Moreover, the IC50 under setting [1] stood at 564 µM.

Consider `CCCCCCCC/C=C\CCCCCCCCOC(=O)C(C)(C)CC(OCCCCCCCC/C=C\CCCCCCCC)O[Si](C)(C)OCCCCCCN1CCCCC1` (stereo not drawn) [Example 87, (Z)-octadec-9-en-1-yl 4-((dimethyl((6-(piperidin-1-yl)hexyl)oxy)silyl)oxy)-2,2-dimethyl-4-(((Z)-octadec-9-en-1-yl)oxy)butanoate], for which the “Viability (%) at different lipid concentrations, mean” value is 101.2% (6.25 μM lipid, resazurin); 97.0% (12.5 μM lipid, resazurin); 97.0% (25 μM lipid, resazurin); 97.8% (50 μM lipid, resazurin); 97.6% (100 μM lipid, resazurin); 102.1% (200 μM lipid, resazurin). Also, the “Viability (%) at different lipid concentrations, mean” value (400 μM lipid, resazurin) was found to be 73.7% and the “Viability (%) at different lipid concentrations, mean” value (800 μM lipid, resazurin) is recorded as 35.2%. In addition, the IC50 (HepG2, 48 h) was found to be 625 µM.

As to `CCCCCCCC/C=C\CCCCCCCCOC(=O)C(C)(C)CC(OCCCCCCCC/C=C\CCCCCCCC)O[Si](C)(C)OCCCCCCN(CCCO)CCCO` (stereo not drawn) [Example 88, (Z)-octadec-9-en-1-yl 1-hydroxy-4-(3-hydroxypropyl)-12,12,16,16-tetramethyl-14-(((Z)-octadec-9-en-1-yl)oxy)-11,13-dioxa-4-aza-12-silaheptadecan-17-oate], the “Viability (%) at different lipid concentrations, mean” value was found to be 109.1% (6.25 μM lipid, resazurin); 112.0% (12.5 μM lipid, resazurin); 109.5% (25 μM lipid, resazurin); 99.6% (50 μM lipid, resazurin); 77.4% (100 μM lipid, resazurin); 57.3% (200 μM lipid, resazurin). Moreover, the “Viability (%) at different lipid concentrations, mean” value (400 μM lipid, resazurin) was determined as 36.6% and the “Viability (%) at different lipid concentrations, mean” value (800 μM lipid, resazurin) is 21.0%. The IC50 under setting [1] is 272 µM.

In the case of `CCCCCCCC/C=C\CCCCCCCCOC(=O)C(C)(C)CC(OCCCCCCCC/C=C\CCCCCCCC)O[Si](C)(C)OCCCCCCN1CCCCC1CO` (stereo not drawn) [Example 89, (Z)-octadec-9-en-1-yl 4-((((6-(2-(hydroxymethyl)piperidin-1-yl)hexyl)oxy)dimethylsilyl)oxy)-2,2-dimethyl-4-(((Z)-octadec-9-en-1-yl)oxy)butanoate], the “Viability (%) at different lipid concentrations, mean” value stood at 101.4% (6.25 μM lipid, resazurin); 97.9% (12.5 μM lipid, resazurin); 97.9% (25 μM lipid, resazurin); 102.8% (50 μM lipid, resazurin); 108.3% (100 μM lipid, resazurin); 106.6% (200 μM lipid, resazurin). Moreover, the “Viability (%) at different lipid concentrations, mean” value runs as follows: (400 μM lipid, resazurin) 99.5%; (800 μM lipid, resazurin) 91.6%. In addition, under setting [1], the IC50 was more than 800 µM.

Take `CCCCCCCC/C=C\CCCCCCCCOC(=O)C(C)(C)CC(OCCCCCCCC/C=C\CCCCCCCC)O[Si](C)(C)OCCCCCCN1CCCC1CO` (stereo not drawn) [Example 90, (Z)-octadec-9-en-1-yl 4-((((6-(2-(hydroxymethyl)pyrrolidin-1-yl)hexyl)oxy)dimethylsilyl)oxy)-2,2-dimethyl-4-(((Z)-octadec-9-en-1-yl)oxy)butanoate]: the “Viability (%) at different lipid concentrations, mean” value was found to be 101.5% (6.25 μM lipid, resazurin); 96.4% (12.5 μM lipid, resazurin); 96.6% (25 μM lipid, resazurin); 100.5% (50 μM lipid, resazurin); 105.8% (100 μM lipid, resazurin); 104.9% (200 μM lipid, resazurin). For the same compound, the “Viability (%) at different lipid concentrations, mean” value runs as follows: (400 μM lipid, resazurin) 93.1%; (800 μM lipid, resazurin) 84.0%. In addition, the IC50 under setting [1] is more than 800 µM.
